This passage reports Kd, IC50 and Thrombocytopenia results from paper PMC10874388, “Cyclic peptides discriminate BCL-2 and its clinical mutants from BCL-XL by engaging a single-residue discrepancy” (Nature Communications, 2024).

One may read the Kd as the free concentration of one partner at which half of the binding sites on the other are occupied at equilibrium, for simple one-to-one binding. High values mean a looser complex, low ones a tighter complex. As a reminder, the IC50 is the concentration that inhibits the measured activity by half. A higher IC50 goes with lower potency.

Starred links: 1 amine or outer side, 2 acyl side, 3 side chain; linkers in the order of their positions; H or OH if unused. Positions of bridges follow the written chain, without caps; N, C: chain ends. Residues, ends and D or L forms follow the SMILES beside them. X1 = O=C(C[*:2])NCCNC(=O)c1ccc(C2=N[C@H](C(=O)[*:1])CS2)cc1

One data set concerns the target T1, BCL-XL (Homo sapiens, UniProt Q07817, DEL27-81).
T1 construct: human BCL-XL (residues 1–210, with 27–81 and 210–233 removed); vector-borne tag of pET-22b (Ni-NTA purification implies a His tag); made in house; host or cells: E. coli BL21 (DE3)
Kind of data set: SPR binding assay, BCL-XL. The note with it: affinity fitting, mean ± SD of three independent experiments, 25 °C. From the text: (§1) The DNA fragments encoding human BCL-XL ([…], with […] removed), BCL-w (residues 6–152), MCL-1 (residues 152–308) and BFL-1 (residues 1–151) as previously reported[18] were cloned into a pET-22b vector (Invitrogen), respectively. A chimeric human BCL-2 (including residues 1–50 and 92–207) was constructed, by removing the internal long loop (residues 51–91) and replacing its residues 35–50 with residues 33–48 of BCL-XL to solubilize the protein[14], and then it was cloned into a pET28a-Sumo vector (Invitrogen). All BCL-2 mutants (G101V, F104L, Y103D, D111A) were generated by mutagenic PCR, according to the QuikChange (Stratagene) protocol.
(§2) SPR assays were performed using a Biacore T200 instrument in running buffer consisting 10 mM PBS, 50 μM EDTA and 0.05% Tween-20 at 25 °C. Biotinylated proteins were immobilized on a CAP sensor chip (Cytiva, 28920234). […] The binding affinities were quantified by the Biacore evaluation software using 1:1 binding model. The reproducibility of the assays was confirmed by performing replicate determinations.
A general note: SPR reads the build-up and loss of mass on a sensor chip optically.

For a further data set, the target named is T2, BCL-2-D111A (Homo sapiens, UniProt P10415, D111A/DEL35-91/INS34DVEENRTEAPEGTESE).
T2 construct: A chimeric human BCL-2 (including residues 1–50 and 92–207) was constructed; SUMO (pET28a-Sumo vector); made in house; host or cells: E. coli BL21 (DE3)
Kind of data set: SPR binding assay, BCL-2 D111A mutant.

Another data set concerns the target T3, BCL-2-G101V (Homo sapiens, UniProt P10415, DEL35-91/G101V/INS34DVEENRTEAPEGTESE).
T3 construct: A chimeric human BCL-2 (including residues 1–50 and 92–207) was constructed; SUMO (pET28a-Sumo vector); made in house; host or cells: E. coli BL21 (DE3)
Kind of data set: SPR binding assay, BCL-2 G101V mutant. The settings on record: affinity fitting, mean ± SD of three independent experiments.
Excerpt: as §1, §2

The target of the next data set is T4, BCL-2-D103Y (Homo sapiens, UniProt P10415, D103Y/DEL35-91/INS34DVEENRTEAPEGTESE).
T4 construct: A chimeric human BCL-2 (including residues 1–50 and 92–207) was constructed; SUMO (pET28a-Sumo vector); made in house; host or cells: E. coli BL21 (DE3)
The data set is described as follows: SPR binding assay, BCL-2 D103Y mutant. The settings on record: affinity fitting, mean ± SD of three independent experiments.
Excerpt: as §1, §2

The next data set concerns the target T5, BCL-2-F104L (Homo sapiens, UniProt P10415, DEL35-91/F104L/INS34DVEENRTEAPEGTESE).
T5 construct: A chimeric human BCL-2 (including residues 1–50 and 92–207) was constructed; SUMO (pET28a-Sumo vector); made in house; host or cells: E. coli BL21 (DE3)
The data set is described as follows: SPR binding assay, BCL-2 F104L mutant. The settings on record: affinity fitting, mean ± SD of three independent experiments.
Excerpt: as §1, §2

In a further data set the target is T6, BCL-w (Homo sapiens, UniProt Q92843).
T6 construct: BCL-w (residues 6–152); vector-borne tag of pET-22b (Ni-NTA purification implies a His tag); made in house; host or cells: E. coli BL21 (DE3)
T6 sequence (Q92843 6-152): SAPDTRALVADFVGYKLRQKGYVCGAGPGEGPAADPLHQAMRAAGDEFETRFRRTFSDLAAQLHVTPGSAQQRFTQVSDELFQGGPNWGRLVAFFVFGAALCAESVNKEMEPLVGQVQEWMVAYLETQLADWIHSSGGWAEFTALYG
The data set is described as follows: SPR binding assay, BCL-w. The note with it: affinity fitting, mean ± SD of three independent experiments.
Excerpt: as §1, §2

The target in the next data set is MCL-1 (Homo sapiens, UniProt Q07820). Kind of data set: SPR binding assay, MCL-1. The note with it: NB = no binding.
MCL-1, sequence (Q07820 152-308): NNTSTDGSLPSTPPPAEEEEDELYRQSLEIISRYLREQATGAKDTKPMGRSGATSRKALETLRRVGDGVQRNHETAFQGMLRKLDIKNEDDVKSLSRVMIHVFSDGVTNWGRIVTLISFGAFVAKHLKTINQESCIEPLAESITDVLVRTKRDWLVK
Excerpt: as §1, §2

The target in a further data set is T7, BFL-1 (Homo sapiens, UniProt Q16548).
T7 construct: BFL-1 (residues 1–151); vector-borne tag of pET-22b (Ni-NTA purification implies a His tag); made in house; host or cells: E. coli BL21 (DE3)
T7 sequence (Q16548 1-151): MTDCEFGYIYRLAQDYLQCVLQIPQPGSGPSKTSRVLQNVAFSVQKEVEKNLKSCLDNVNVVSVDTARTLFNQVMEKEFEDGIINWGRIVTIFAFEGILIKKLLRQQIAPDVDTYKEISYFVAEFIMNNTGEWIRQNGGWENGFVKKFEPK
Kind of data set: SPR binding assay, BFL-1. The note with it: NB = no binding.
Excerpt: as §1, §2

In the next data set the test system is Jurkat cells. Kind of data set: Cell viability assay (CellTiter-Glo), Jurkat. Format: cell-based. The settings on record: Homo sapiens, 48 h treatment, CellTiter-Glo. The procedure: (§3) The cell lines Jurkat (TIB-152), El4 (TIB-39), Daudi (ccl-213), RS4:11 (crl-1873), A549 (ccl-185), HepG2 (hb-8065) and PANC-1 (crl-1469) were purchased from ATCC (American Type Culture Collection), and MGC-803 (C6582) was purchased from Beyotime (https://www.beyotime.com/product/C6582.htm). […] Daudi and RS4:11 cells were cultured in RPMI-1640 medium (HyClone, SH30809.01) and 10% FBS (Gibco, 10099-141), whereas HepG2, MGC-803 and PANC-1 cells were cultured in MDEM (HyClone, SH30243.01). Cells were maintained at 37 °C under a humidified, 5% (v/v) CO2-containing atmosphere.
(§4) Cell viability was measured using CellTiter-Glo® 2.0 Reagent (Promega, G9242). […] After different inhibitors were added into serum-free medium and cultured for 4 h (RS4:11 for 6 h), FBS were supplemented to 10% and then incubated totally for 24 h or 48 h. Finally, the IC50 values were calculated based on measurements using a microplate reader (Thermo, Varioskan LUX). Statistical analysis was performed using software GraphPad Prism 7.0.
(ATP-based viability assays read luminescence as a measure of living cells.)

For another data set, the system named is Daudi cells. Kind of data set: Cell viability assay (CellTiter-Glo), Daudi. Format: cell-based. The note with it: Homo sapiens, Daudi, 48 h, 48 h treatment, CellTiter-Glo. The procedure:
as §3, §4

Another data set concerns El4 cells. The data set is described as follows: Cell viability assay (CellTiter-Glo), El4. Format: cell-based. The settings on record: Mus musculus, 48 h treatment, NO = no inhibition detected. The procedure:
as §3, §4

In another data set the test system is RS4:11 cells. The data set is described as follows: Cell viability assay (CellTiter-Glo), RS4:11. In kind it is cell-based. The note with it: Homo sapiens, RS4-11; 48 h treatment, CellTiter-Glo; small-molecule inhibitors, cells marked (nM). The gist of the method:
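Compounds added in serum-free medium for 4 h (RS4:11: 6 h), then FBS brought to 10% and incubation continued to 24 h or 48 h total at 37 °C, 5% CO2. Viability by CellTiter-Glo 2.0 luminescence; IC50 calculated.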

Details of data set [1]: method as in PMID 23410971. The settings on record: attributed to binding to BCL-XL; cited from earlier work.

Turning to `C[C@@H]1NC(=O)[C@@H]2CCCN2C(=O)[C@@H]2CSC(=N2)c2ccc(cc2)C(=O)NCCNC(=O)CSC[C@@H](C(N)=O)NC(=O)[C@H](CCC(=O)O)NC(=O)[C@H](Cc2ccc(O)cc2)NC(=O)[C@H](CC(=O)O)NC(=O)[C@H](Cc2c[nH]c3ccccc23)NC(=O)CNC(=O)[C@H](Cc2ccc(O)cc2)NC(=O)[C@H](CCCNC(=N)N)NC1=O` [cp1] (PARYGWDYEC-NH2; linker N-10 via X1), the dissociation constant Kd on BCL-XL is over 12.1 µM; at BCL-2-D111A, 5.34 ± 1 µM; on BCL-2-G101V, 1 ± 0.13 µM; at BCL-2-D103Y it was 0.36 ± 0.03 µM; at BCL-2-F104L, 1.62 ± 0.36 µM; at BCL-w, 1.98 ± 0.39 µM. The Kd on MCL-1 and at BFL-1 was over 12.8 µM in each case.

Turning to `CC1(C)CCC(c2ccc(Cl)cc2)=C(CN2CCN(c3ccc(C(=O)NS(=O)(=O)c4ccc(N[C@H](CCN5CCOCC5)CSc5ccccc5)c(S(=O)(=O)C(F)(F)F)c4)cc3)CC2)C1` [ABT-263, navitoclax], the IC50 is 8.5 ± 0.5 µM in the data set with Jurkat cells, 13.5 ± 1.5 µM in the data set with Daudi cells, over 100 µM in the data set on El4 cells and 0.4 ± 0.1 nM in the data set with RS4:11 cells. Moreover, in data set [1], the Thrombocytopenia result was “dose-dependent thrombocytopenia”.
